Assay results reported in ChEMBL document CHEMBL1201862, “PubChem BioAssay data set” (2004).
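Compound exposure: 48 hours, 5 concentrations, 96-well plates. GI50: concentration for 50% inhibition of growth.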 Active and inactive are the calls of the source. Rule as the data show it: active = GI50 up to about 1.1 µM and inactive = higher.

Tests used:
Assay in all cases: NCI tumour cell line growth inhibition, 48 h
[1] = tested on: 786-0
[2] = tested on: A549
[3] = tested on: ACHN
[4] = tested on: CAKI-1
[5] = tested on: CCRF-CEM
[6] = tested on: COLO 205
[7] = tested on: DLD-1
[8] = tested on: DMS-114
[9] = tested on: DMS-273
[10] = tested on: EKVX
[11] = tested on: HCC 2998
[12] = tested on: HCT-15
[13] = tested on: HL-60
[14] = tested on: HOP-62
[15] = tested on: IGROV-1
[16] = tested on: K562
[17] = tested on: KM-20L2
[18] = tested on: LOX IMVI
[19] = tested on: LXFL 529
[20] = tested on: M14
[21] = tested on: M19-MEL
[22] = tested on: MOLT-4
[23] = tested on: Malme-3M
[24] = tested on: OVCAR-4
[25] = tested on: OVCAR-5
[26] = tested on: OVCAR-8
[27] = tested on: RPMI-8226
[28] = tested on: SK-MEL-2
[29] = tested on: SK-MEL-5
[30] = tested on: SK-OV-3
[31] = tested on: SN12C
[32] = tested on: SR
[33] = tested on: SW-620
[34] = tested on: TK-10
[35] = tested on: U-251
[36] = tested on: UACC-62
[37] = tested on: XF498
[38] = tested on: A498
[39] = tested on: HCT-116
[40] = tested on: HOP-92
[41] = tested on: HT-29
[42] = tested on: KM12
[43] = tested on: NCI-H226
[44] = tested on: NCI-H23
[45] = tested on: NCI-H460
[46] = tested on: NCI-H522
[47] = tested on: OVCAR-3
[48] = tested on: SF-268
[49] = tested on: SF-295
[50] = tested on: SF-539
[51] = tested on: SK-MEL-28
[52] = tested on: SNB-19
[53] = tested on: SNB-75
[54] = tested on: SNB-78
[55] = tested on: UO-31
[56] = tested on: UACC-257

Compound: CC#Cc1c(O)c2c(c(O)c1C#CC)C(=O)c1ccccc1C2=O
- GI50 [1]: > 100 µM (inactive)
- GI50 [2]: > 100 µM (inactive)
- GI50 [3]: > 100 µM (inactive)
- GI50 [4]: > 100 µM (inactive)
- GI50 [5]: > 100 µM (inactive)
- GI50 [6]: > 100 µM (inactive)
- GI50 [7]: > 100 µM (inactive)
- GI50 [8]: > 100 µM (inactive)
- GI50 [9]: > 100 µM (inactive)
- GI50 [10]: > 100 µM (inactive)
- GI50 [11]: > 100 µM (inactive)
- GI50 [12]: > 100 µM
- GI50 [13]: > 100 µM (inactive)
- GI50 [14]: > 100 µM (inactive)
- GI50 [15]: > 100 µM (inactive)
- GI50 [16]: > 100 µM (inactive)
- GI50 [17]: > 100 µM (inactive)
- GI50 [18]: 93.5 µM (inactive)
- GI50 [19]: 11 µM (inactive)
- GI50 [20]: > 100 µM (inactive)
- GI50 [21]: > 100 µM (inactive)
- GI50 [22]: > 100 µM (inactive)
- GI50 [23]: > 100 µM (inactive)
- GI50 [24]: > 100 µM (inactive)
- GI50 [25]: > 100 µM (inactive)
- GI50 [26]: > 100 µM (inactive)
- GI50 [27]: 54.5 µM (inactive)
- GI50 [28]: > 100 µM (inactive)
- GI50 [29]: > 100 µM (inactive)
- GI50 [30]: > 100 µM (inactive)
- GI50 [31]: > 100 µM (inactive)
- GI50 [32]: > 100 µM (inactive)
- GI50 [33]: > 100 µM (inactive)
- GI50 [34]: > 100 µM (inactive)
- GI50 [35]: > 100 µM (inactive)
- GI50 [36]: 64.6 µM (inactive)
- GI50 [37]: > 100 µM (inactive)

Compound: CCCCN/C(=N/C#N)NCc1ccccc1
- GI50 [1]: > 100 µM (inactive)
- GI50 [38]: > 100 µM (inactive)
- GI50 [2]: > 100 µM (inactive)
- GI50 [3]: > 100 µM (inactive)
- GI50 [4]: > 100 µM (inactive)
- GI50 [5]: > 100 µM (inactive)
- GI50 [6]: > 100 µM (inactive)
- GI50 [7]: > 100 µM (inactive)
- GI50 [9]: > 100 µM (inactive)
- GI50 [10]: > 100 µM (inactive)
- GI50 [11]: 88.5 µM (inactive)
- GI50 [39]: > 100 µM (inactive)
- GI50 [12]: > 100 µM
- GI50 [13]: > 100 µM (inactive)
- GI50 [14]: > 100 µM (inactive)
- GI50 [40]: > 100 µM (inactive)
- GI50 [41]: > 100 µM (inactive)
- GI50 [15]: > 100 µM (inactive)
- GI50 [17]: > 100 µM (inactive)
- GI50 [42]: > 100 µM (inactive)
- GI50 [18]: > 100 µM (inactive)
- GI50 [19]: > 100 µM (inactive)
- GI50 [20]: > 100 µM (inactive)
- GI50 [21]: > 100 µM (inactive)
- GI50 [22]: > 100 µM (inactive)
- GI50 [23]: > 100 µM (inactive)
- GI50 [43]: > 100 µM (inactive)
- GI50 [44]: > 100 µM (inactive)
- GI50 [45]: > 100 µM (inactive)
- GI50 [46]: > 100 µM (inactive)
- GI50 [47]: > 100 µM (inactive)
- GI50 [24]: > 100 µM (inactive)
- GI50 [25]: > 100 µM (inactive)
- GI50 [26]: > 100 µM (inactive)
- GI50 [27]: > 100 µM (inactive)
- GI50 [48]: > 100 µM (inactive)
- GI50 [49]: > 100 µM (inactive)
- GI50 [50]: > 100 µM (inactive)
- GI50 [51]: > 100 µM (inactive)
- GI50 [28]: > 100 µM (inactive)
- GI50 [29]: > 100 µM (inactive)
- GI50 [30]: > 100 µM (inactive)
- GI50 [31]: > 100 µM (inactive)
- GI50 [52]: > 100 µM (inactive)
- GI50 [53]: 42.8 µM (inactive)
- GI50 [54]: > 100 µM (inactive)
- GI50 [32]: > 100 µM (inactive)
- GI50 [33]: > 100 µM (inactive)
- GI50 [34]: > 100 µM (inactive)
- GI50 [35]: > 100 µM (inactive)
- GI50 [36]: > 100 µM (inactive)
- GI50 [55]: > 100 µM (inactive)
- GI50 [37]: > 100 µM (inactive)

Compound: Cc1cc(Cl)ccc1C1OC(=O)c2c1ccc1ccccc21 (stereo not drawn)
- GI50 [1]: 97.5 µM (inactive)
- GI50 [38]: > 100 µM (inactive)
- GI50 [2]: > 100 µM (inactive)
- GI50 [3]: > 100 µM (inactive)
- GI50 [4]: > 100 µM (inactive)
- GI50 [5]: > 100 µM (inactive)
- GI50 [6]: > 100 µM (inactive)
- GI50 [7]: > 100 µM (inactive)
- GI50 [9]: > 100 µM (inactive)
- GI50 [10]: > 100 µM (inactive)
- GI50 [11]: > 100 µM (inactive)
- GI50 [39]: > 100 µM (inactive)
- GI50 [12]: > 100 µM
- GI50 [13]: > 100 µM (inactive)
- GI50 [14]: > 100 µM (inactive)
- GI50 [40]: > 100 µM (inactive)
- GI50 [41]: > 100 µM (inactive)
- GI50 [15]: > 100 µM (inactive)
- GI50 [16]: > 100 µM (inactive)
- GI50 [17]: > 100 µM (inactive)
- GI50 [42]: > 100 µM (inactive)
- GI50 [18]: > 100 µM (inactive)
- GI50 [19]: 74.1 µM (inactive)
- GI50 [20]: > 100 µM (inactive)
- GI50 [21]: > 100 µM (inactive)
- GI50 [22]: > 100 µM (inactive)
- GI50 [23]: > 100 µM (inactive)
- GI50 [43]: > 100 µM (inactive)
- GI50 [44]: > 100 µM (inactive)
- GI50 [45]: > 100 µM (inactive)
- GI50 [46]: > 100 µM (inactive)
- GI50 [47]: > 100 µM (inactive)
- GI50 [24]: 23.6 µM (inactive)
- GI50 [25]: > 100 µM (inactive)
- GI50 [26]: > 100 µM (inactive)
- GI50 [27]: > 100 µM (inactive)
- GI50 [48]: > 100 µM (inactive)
- GI50 [49]: > 100 µM (inactive)
- GI50 [50]: > 100 µM (inactive)
- GI50 [51]: > 100 µM (inactive)
- GI50 [28]: > 100 µM (inactive)
- GI50 [29]: 58.2 µM (inactive)
- GI50 [30]: > 100 µM (inactive)
- GI50 [31]: > 100 µM (inactive)
- GI50 [52]: > 100 µM (inactive)
- GI50 [53]: 29.9 µM (inactive)
- GI50 [33]: > 100 µM (inactive)
- GI50 [34]: > 100 µM (inactive)
- GI50 [35]: > 100 µM (inactive)
- GI50 [56]: > 100 µM (inactive)
- GI50 [36]: > 100 µM (inactive)
- GI50 [55]: > 100 µM (inactive)
- GI50 [37]: > 100 µM (inactive)
